In paper PMC4267739, “Functional Characterization of Corynebacterium glutamicum Mycothiol S-Conjugate Amidase” (PLoS ONE, 2014):
Values after ≈ are worked out from the molar mass of the structure shown.

Legend:
[1] = test system: T1, Corynebacterium glutamicum WT(pXMJ19); assay: microbe, parasite or virus in culture; parameters: species or system Corynebacterium glutamicum RES167 (pXMJ19); Broth dilution MIC in LB at 30 °C, serial 2-fold dilution, growth checked after 1 to 2 days; conditions: LB, 30 °C, wild type with empty vector pXMJ19; for MIC: Corynebacterium glutamicum, read-out: MIC (µg ml^−1) / WT(pXMJ19)
T1 construct: RES167 wild type carrying empty vector pXMJ19
Protocol: Disk diffusion assays were performed for antibiotics, alkylating agents, and oxidative agents according to Rawat et al.. Briefly, cells were grown to the mid-log phase and a lawn of cells was plated onto LB plates. After the paper disks were placed into the plates, various amounts of agents (10 µl) were added to the disk. The disks were allowed to dry and the plates were incubated for 2 to 3 days. For the minimal broth dilution assay, antibiotics were serially diluted (0.5×) in LB medium (1 ml) and cells (A 600 = 1.6) were inoculated. After 1 to 2 days of incubation at 30°C, the tubes were checked for growth. The bacteriostasis growth curve assay was used to determine the sensitivity of C. glutamicum to heavy metal stress. LB-grown strains (50 µl) were transferred to LB broth (5 ml), with and without addition of various concentrations of heavy metals (Cd^2+, Ni^2+, Cr^2+ and Cu^2+) and incubated at 30°C. The cellular growth was monitored turbidimetrically (A 600) after 24 h. All assays were performed in triplicate. First, sensitivity of C. glutamicum strains to Macrolides and β-Lactams was tested. […] These observations indicate that the Mca-dependent detoxification pathway indeed plays a major role in the detoxification of rifamycin S. However, no significant difference was found in the size of growth inhibition zones around erythromycin, lincomycin and spectinomycin (all belong to […]) between WT(pXMJ19), Δmca(pXMJ19) and the complementary strain Δmca(pXMJ19-mca) (Table 3; p>0.05). Similar trend was obtained in the MIC data (Table 4). […] Bacterial strains used in this study are listed in S1 Table. Escherichia coli and C. glutamicum strains were routinely cultured in Luria-Bertani (LB) broth or on LB plates at 37°C and 30°C, respectively. For generation of mutants and maintenance of C. glutamicum, brain heart infusion broth with 0.5 M sorbitol (BHIS) was used. The C. glutamicum RES167 strain was the parent of all derivatives used in this study. In-frame deletions were generated by the method as described previously. Cell growth was monitored by measuring absorbance at 600 nm (A 600). Antibiotics were added at the following concentrations: kanamycin, 50 µg ml^−1 for E. coli and 25 µg ml^−1 for C. glutamicum; nalidixic acid, 40 µg ml^−1 for C. glutamicum; chloramphenicol, 20 µg ml^−1 for E. coli and 10 µg ml^−1 for C. glutamicum.

[2] = test system: CC(=O)N[C@@H](CSCc1c(C)c(=O)n2c(=O)c(C)c(C)n12)C(=O)N[C@H]1[C@@H](O[C@@H]2[C@H](O)[C@H](O)[C@@H](O)[C@H](O)[C@H]2O)O[C@H](CO)[C@@H](O)[C@@H]1O; assay: purified protein; conditions: amidase activity, 10 µM enzyme, 0-10 mM MSmB, 50 mM HEPES pH 7.5, 37°C, Table 6 prints 92.34±1.5 mM and kcat unit min^-1
Excerpt: fluorescamine assay of released amine, Eadie-Hofstee on C. glutamicum Mca (mycothiol S-conjugate amidase; His6-Mca)

Row | MIC [1] | Compound | other results
1 | 1.56 µg/mL (≈ 4.71 µM) | O=C(O)c1cn(C2CC2)c2cc(N3CCNCC3)c(F)cc2c1=O [Ciprofloxacin] | –
2 | 12.5 µg/mL (≈ 18 µM) | CO[C@H]1/C=C/O[C@@]2(C)Oc3c(C)c(O)c4c(c3C2=O)C(=O)C=C(NC(=O)/C(C)=C\C=C\[C@H](C)[C@H](O)[C@@H](C)[C@@H](O)[C@@H](C)[C@H](OC(C)=O)[C@@H]1C)C4=O [Rifamycin S] | –
3 | 7.5 µg/mL (≈ 12.2 µM) | NC[C@@H]1O[C@H](O[C@H]2[C@@H](O)[C@H](O[C@@H]3[C@@H](O)[C@H](N)C[C@H](N)[C@H]3O[C@H]3O[C@H](CN)[C@@H](O)[C@H](O)[C@H]3N)O[C@@H]2CO)[C@H](N)[C@@H](O)[C@@H]1O [Neomycin] | –
4 | 3.12 µg/mL (≈ 7.03 µM) | CN(C)[C@@H]1C(O)=C(C(N)=O)C(=O)[C@@]2(O)C(O)=C3C(=O)c4c(O)cccc4[C@@](C)(O)[C@H]3C[C@@H]12 [Tetracycline] | –
5 | 32 µg/mL (≈ 22.1 µM) | CN[C@H](CC(C)C)C(=O)N[C@H]1C(=O)N[C@@H](CC(N)=O)C(=O)N[C@H]2C(=O)N[C@H]3C(=O)N[C@H](C(=O)N[C@H](C(=O)O)c4cc(O)cc(O)c4-c4cc3ccc4O)[C@H](O)c3ccc(c(Cl)c3)Oc3cc2cc(c3O[C@@H]2O[C@H](CO)[C@@H](O)[C@H](O)[C@H]2O[C@H]2C[C@](C)(N)[C@H](O)[C@H](C)O2)Oc2ccc(cc2Cl)[C@H]1O [Vancomycin] | –
6 | > 350 µg/mL | CC1(C)S[C@@H]2[C@H](NC(=O)Cc3ccccc3)C(=O)N2[C@H]1C(=O)O [Penicillin] | –
7 | 62.5 µg/mL (≈ 154 µM) | CCC[C@@H]1C[C@@H](C(=O)N[C@@H]([C@H]2O[C@H](SC)[C@H](O)[C@@H](O)[C@H]2O)[C@@H](C)O)N(C)C1 [Lincomycin] | –
8 | 128 µg/mL (≈ 385 µM) | CN[C@@H]1[C@H](O)[C@H](NC)[C@H]2O[C@@]3(O)C(=O)C[C@@H](C)O[C@H]3O[C@@H]2[C@H]1O [Spectinomycin] | –
9 | – | CN[C@@H]1[C@H](O[C@H]2[C@H](O[C@H]3[C@H](O)[C@@H](O)[C@H](N=C(N)N)[C@@H](O)[C@@H]3N=C(N)N)O[C@@H](C)[C@]2(O)C=O)O[C@@H](CO)[C@H](O)[C@H]1O [Streptomycin] | MIC (µg ml^−1) / WT(pXMJ19) ([1]; inhibitor): 1.25 ug/mL
10 | 25 µg/mL (≈ 34.1 µM) | CC[C@H]1OC(=O)[C@H](C)[C@@H](O[C@H]2C[C@@](C)(OC)[C@@H](O)[C@H](C)O2)[C@H](C)[C@@H](O[C@@H]2O[C@H](C)C[C@H](N(C)C)[C@H]2O)[C@](C)(O)C[C@@H](C)C(=O)[C@H](C)[C@@H](O)[C@]1(C)O [Erythromycin] | –
11 | – | C. glutamicum Mca (mycothiol S-conjugate amidase; His6-Mca) (Corynebacterium glutamicum ATCC 13032) | Km [2]: 92.30 ± 1.5 mM; kcat [2]: 3.56 ± 0.9 s⁻¹; kcat/Km [2]: 38.5 ± 9.6 M⁻¹ s⁻¹
